The results in this text go back to PubChem BioAssay (NCI).

Among the test systems are 786-0 renal; A498 renal; A549 NSCLC; KM12 colon; MOLT-4 leukemia; NCI-H23 lung; OVCAR-8 ovarian; SK-MEL-2 melanoma; SW-620 colon.
Common to all, as to assay: DTP human tumour cell line panel, 48 h

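Values below derive from 48-hour exposures of cells grown in 96-well plates, with endpoints linearly interpolated between the two concentrations bracketing the appropriate inhibition level. GI50 = concentration required for 50% inhibition of growth. TGI marks complete inhibition of growth.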 Some results are limits rather than exact numbers.

As for `Cc1[nH]nc(C(=O)N/N=C/c2cccs2)c1N=NN(C)C`, the TGI in the experiment on 786-0 renal is 69.6 µM; in the experiment with A498 renal, 91 µM; in the experiment on A549 NSCLC, 52.7 µM; in the experiment on KM12 colon, over 100 µM; with MOLT-4 leukemia it was 90.7 µM; in the experiment with NCI-H23 lung it was over 100 µM. The TGI with OVCAR-8 ovarian is 33.1 µM; with SK-MEL-2 melanoma, 79.8 µM; with SW-620 colon, 93.5 µM.

Take `COc1cc([N+](=O)[O-])c2ncccc2c1O`: the GI50 with 786-0 renal is 17.9 µM; in the experiment with A498 renal, 1.31 µM; with A549 NSCLC, 0.32 µM; in the experiment with KM12 colon it was 2.18 µM; in the experiment on MOLT-4 leukemia, 49.1 µM; in the experiment with NCI-H23 lung it was 1.37 µM. The GI50 was 8.71 µM with OVCAR-8 ovarian, 9.91 µM in the experiment on SK-MEL-2 melanoma and 4.07 µM in the experiment with SW-620 colon. Also, the TGI in the experiment on 786-0 renal is over 100 µM; in the experiment with A498 renal, 4.25 µM; with A549 NSCLC, 1.74 µM; in the experiment with KM12 colon, 7.02 µM; in the experiment on MOLT-4 leukemia it was over 100 µM; with NCI-H23 lung it was 4.8 µM. The figures for the TGI in the experiment with OVCAR-8 ovarian, in the experiment on SK-MEL-2 melanoma and with SW-620 colon were over 100 µM, 52.4 µM and over 100 µM, respectively.

Consider `CC(=O)OCC1OC(O[C@@H]2C[C@H]3C(C)(C)[C@H](OC(C)=O)CC[C@]3(C)[C@H]3CC[C@@H]4[C@]5(CC[C@@]4(C)[C@@]32C)O[C@@H]([C@H](O)C(C)(C)O)C[C@@H]5C)C(O)C(O)C1O` (stereo not given in full), for which the GI50 with 786-0 renal is 8.79 µM; with A498 renal, 11.7 µM; in the experiment with A549 NSCLC it was 5.1 µM; in the experiment on KM12 colon it was 2 µM; in the experiment on MOLT-4 leukemia it was 3.13 µM; in the experiment on NCI-H23 lung, 12.9 µM. In addition, the results for the GI50 in the experiment with OVCAR-8 ovarian, in the experiment on SK-MEL-2 melanoma and with SW-620 colon were 9.35 µM, 6.04 µM and 10.4 µM, respectively. In addition, the total growth inhibition concentration (TGI) in the experiment with 786-0 renal amounted to 21.9 µM; in the experiment with A498 renal it was 25.9 µM; in the experiment with A549 NSCLC it was 18.3 µM; in the experiment on KM12 colon it was 7.68 µM; in the experiment on MOLT-4 leukemia it was 12.2 µM; with NCI-H23 lung, 26.9 µM. Moreover, the figures for the TGI in the experiment with OVCAR-8 ovarian, with SK-MEL-2 melanoma and in the experiment on SW-620 colon were 23.7 µM, 19.7 µM and 22.9 µM, respectively.

`COc1cc(C(=O)c2c(-c3ccccc3)oc3ccccc23)cc(OC)c1O`: the GI50 in the experiment with 786-0 renal was 4.15 µM; in the experiment on A498 renal it was 2.09 µM; with A549 NSCLC it was 4.41 µM; in the experiment on KM12 colon, 3.99 µM; in the experiment with MOLT-4 leukemia it was 2.69 µM; with NCI-H23 lung, 3.96 µM. In addition, the GI50 in the experiment with OVCAR-8 ovarian is 4.8 µM; in the experiment on SK-MEL-2 melanoma it was 6.78 µM; in the experiment on SW-620 colon it was 0.96 µM. Further, the TGI in the experiment on 786-0 renal was 17 µM; in the experiment with A498 renal, 5.76 µM; in the experiment on A549 NSCLC, over 100 µM; in the experiment with KM12 colon it was 16.5 µM; with MOLT-4 leukemia it was 22.2 µM; in the experiment with NCI-H23 lung, 22.6 µM. Further, the TGI worked out at 83.9 µM with OVCAR-8 ovarian, 29.2 µM in the experiment on SK-MEL-2 melanoma and 26.9 µM in the experiment with SW-620 colon.

Regarding `CC(C)(CN1CCCCC1)C(=O)CC(SCCS(=O)(=O)O)c1ccc(Cl)c(Cl)c1` (stereo not given), the TGI in the experiment with 786-0 renal amounted to 3.4 µM; in the experiment on A498 renal it was 12.9 µM; in the experiment on A549 NSCLC, 21 µM; with KM12 colon it was 23 µM; in the experiment on MOLT-4 leukemia, 8.06 µM; in the experiment with NCI-H23 lung it was 15.8 µM. Moreover, the results for the TGI in the experiment on OVCAR-8 ovarian, with SK-MEL-2 melanoma and with SW-620 colon were 8.45 µM, 57.3 µM and 4.61 µM, respectively.

On to `CCN(CC)c1ccc(/C=N\NC(=O)c2cccc(Nc3ccnc(C(F)(F)F)c3)c2)c(O)c1`, for which the GI50 in the experiment with 786-0 renal is 0.27 µM; in the experiment on A498 renal it was 0.541 µM; with A549 NSCLC, 0.587 µM; in the experiment on KM12 colon, 0.342 µM; in the experiment with MOLT-4 leukemia it was 0.126 µM; in the experiment with NCI-H23 lung, 0.575 µM. Further, the GI50 with OVCAR-8 ovarian is 0.342 µM; with SK-MEL-2 melanoma it was 0.893 µM; in the experiment on SW-620 colon, 0.366 µM. The TGI in the experiment with 786-0 renal is 0.885 µM; in the experiment with A498 renal, 17 µM; in the experiment on A549 NSCLC, over 100 µM; in the experiment on KM12 colon, over 100 µM; in the experiment with MOLT-4 leukemia, 1.49 µM; in the experiment with NCI-H23 lung, over 100 µM. Further, the TGI in the experiment on OVCAR-8 ovarian was over 100 µM; in the experiment on SK-MEL-2 melanoma it was over 41.2 µM; with SW-620 colon, over 100 µM.

Consider `CC(C)=CCC[C@](C)(O)[C@H]1CC[C@]2(C)[C@@H]1CC[C@@H]1[C@@]3(C)CC[C@H](OC(=O)CCC(=O)O)C(C)(C)[C@@H]3CC[C@]12C`, for which the GI50 with 786-0 renal is over 100 µM; in the experiment on A498 renal, 80.4 µM; in the experiment with A549 NSCLC, 32.3 µM; in the experiment with KM12 colon, 18.5 µM; with MOLT-4 leukemia, 21 µM; in the experiment on NCI-H23 lung, 30.8 µM. For the same compound, the GI50 was 35.5 µM with OVCAR-8 ovarian, 25.3 µM in the experiment on SK-MEL-2 melanoma and 35.4 µM with SW-620 colon. The TGI in the experiment on 786-0 renal is over 100 µM; with A498 renal it was over 100 µM; in the experiment on A549 NSCLC it was over 100 µM; in the experiment with KM12 colon it was 41.2 µM; in the experiment on MOLT-4 leukemia it was 94 µM; in the experiment on NCI-H23 lung, over 100 µM. Besides, the results for the TGI in the experiment with OVCAR-8 ovarian, in the experiment with SK-MEL-2 melanoma and in the experiment on SW-620 colon were over 100 µM, 85.6 µM and over 100 µM, respectively.

As to `O=C(O)CCN1C(=O)/C(=C/C(Cl)=C/c2ccccc2)SC1=S`, the GI50 with 786-0 renal is 3.23 µM; in the experiment on A498 renal, 1.97 µM; in the experiment with A549 NSCLC, 3.52 µM; with KM12 colon, 2.01 µM; in the experiment on MOLT-4 leukemia it was 1.98 µM; with NCI-H23 lung, 1.96 µM. Besides, the GI50 in the experiment with OVCAR-8 ovarian was 3.27 µM; with SK-MEL-2 melanoma, 2.16 µM; in the experiment with SW-620 colon, 2.3 µM. Moreover, the concentration for total growth inhibition (TGI) with 786-0 renal was found to be 10.5 µM; in the experiment with A498 renal, 3.62 µM; with A549 NSCLC, 15.1 µM; in the experiment with KM12 colon it was 4.64 µM; in the experiment with MOLT-4 leukemia, 8.12 µM; in the experiment with NCI-H23 lung, 4.63 µM. The TGI in the experiment with OVCAR-8 ovarian turned out to be 22.2 µM; in the experiment with SK-MEL-2 melanoma, 6.27 µM; in the experiment on SW-620 colon, 6.32 µM.

Regarding `O=C1CCC(c2ccccc2)(c2ccccc2)CC1`, the TGI in the experiment on 786-0 renal, with A498 renal, in the experiment with A549 NSCLC, in the experiment on KM12 colon, with MOLT-4 leukemia and in the experiment with NCI-H23 lung was over 100 µM throughout. In addition, the TGI in the experiment on OVCAR-8 ovarian, in the experiment on SK-MEL-2 melanoma and in the experiment on SW-620 colon was over 100 µM each time.
